Laboratory results: ChEMBL document CHEMBL3352817, “Syntheses of coumarin-tacrine hybrids as dual-site acetylcholinesterase inhibitors and their activity against butylcholinesterase, Aβ aggregation, and β-secretase” (Bioorg Med Chem, 2014)

How the values were obtained:
[1] = biological target: Cholinesterase (Homo sapiens, UniProt P06276)
Description: Inhibition of human BChE assessed as acetylthiocholine hydrolysis

[2] = biological target: Acetylcholinesterase (Homo sapiens, UniProt P22303)
Description: Inhibition of human AChE assessed as acetylthiocholine hydrolysis

[3] = biological target: Beta-secretase 1 (Homo sapiens, UniProt P56817)
[4] = biological target: Amyloid-beta precursor protein (Homo sapiens, UniProt P05067)
Amyloid-beta precursor protein, sequence (P05067 whole entry): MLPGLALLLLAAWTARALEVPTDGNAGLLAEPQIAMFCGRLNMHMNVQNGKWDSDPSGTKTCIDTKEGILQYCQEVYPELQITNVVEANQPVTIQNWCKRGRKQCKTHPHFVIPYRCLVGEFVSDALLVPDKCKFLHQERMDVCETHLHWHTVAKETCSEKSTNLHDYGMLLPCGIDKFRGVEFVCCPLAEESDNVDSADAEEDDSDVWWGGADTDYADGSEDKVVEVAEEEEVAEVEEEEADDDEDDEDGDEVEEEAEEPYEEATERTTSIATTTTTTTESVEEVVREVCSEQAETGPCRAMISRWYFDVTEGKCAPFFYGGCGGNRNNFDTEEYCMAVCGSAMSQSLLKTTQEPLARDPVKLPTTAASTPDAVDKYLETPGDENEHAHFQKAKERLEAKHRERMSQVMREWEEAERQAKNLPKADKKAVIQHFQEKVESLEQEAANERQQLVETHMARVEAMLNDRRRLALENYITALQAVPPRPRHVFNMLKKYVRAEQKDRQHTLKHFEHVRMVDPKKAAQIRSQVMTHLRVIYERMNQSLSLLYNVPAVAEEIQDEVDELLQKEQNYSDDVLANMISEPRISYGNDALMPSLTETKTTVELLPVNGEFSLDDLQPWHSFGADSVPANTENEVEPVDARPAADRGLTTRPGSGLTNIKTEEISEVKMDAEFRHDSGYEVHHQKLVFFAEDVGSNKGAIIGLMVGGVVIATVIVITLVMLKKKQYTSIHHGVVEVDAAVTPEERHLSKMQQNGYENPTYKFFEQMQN
Description: Inhibition of self mediated amyloid beta (1 to 42) aggregation (unknown origin) after 10 hrs by ThT-based fluorescence assay

Acetylcholinesterase, sequence (P22303 whole entry): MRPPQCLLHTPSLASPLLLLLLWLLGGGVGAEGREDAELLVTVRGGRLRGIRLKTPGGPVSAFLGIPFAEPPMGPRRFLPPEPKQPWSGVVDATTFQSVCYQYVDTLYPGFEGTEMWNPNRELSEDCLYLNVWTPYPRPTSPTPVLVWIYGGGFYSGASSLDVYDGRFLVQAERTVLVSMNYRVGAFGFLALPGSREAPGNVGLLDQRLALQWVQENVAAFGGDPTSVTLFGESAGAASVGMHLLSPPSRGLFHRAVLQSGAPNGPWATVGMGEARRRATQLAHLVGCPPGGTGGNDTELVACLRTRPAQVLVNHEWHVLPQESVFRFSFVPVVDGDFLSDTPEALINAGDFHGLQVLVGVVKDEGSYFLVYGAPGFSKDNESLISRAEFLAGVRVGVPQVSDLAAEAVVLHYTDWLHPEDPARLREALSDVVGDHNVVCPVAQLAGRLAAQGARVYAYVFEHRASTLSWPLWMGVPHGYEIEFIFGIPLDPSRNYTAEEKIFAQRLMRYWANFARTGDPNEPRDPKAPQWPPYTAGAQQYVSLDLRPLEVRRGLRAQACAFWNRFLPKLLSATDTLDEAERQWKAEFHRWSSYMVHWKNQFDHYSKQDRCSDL
Beta-secretase 1, sequence (P56817 whole entry): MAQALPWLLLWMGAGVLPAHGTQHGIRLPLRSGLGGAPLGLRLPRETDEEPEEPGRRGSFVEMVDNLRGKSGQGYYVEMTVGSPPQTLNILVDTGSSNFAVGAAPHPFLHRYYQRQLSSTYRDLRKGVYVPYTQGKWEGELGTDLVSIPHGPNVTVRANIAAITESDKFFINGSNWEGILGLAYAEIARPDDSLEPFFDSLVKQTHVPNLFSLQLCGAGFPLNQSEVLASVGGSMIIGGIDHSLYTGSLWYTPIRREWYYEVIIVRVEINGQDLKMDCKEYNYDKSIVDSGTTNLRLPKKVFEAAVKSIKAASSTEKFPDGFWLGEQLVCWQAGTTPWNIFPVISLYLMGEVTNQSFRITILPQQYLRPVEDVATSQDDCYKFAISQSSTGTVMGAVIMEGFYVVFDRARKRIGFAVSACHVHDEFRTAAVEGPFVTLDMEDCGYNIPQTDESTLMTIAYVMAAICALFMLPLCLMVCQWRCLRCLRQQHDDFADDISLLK
Cholinesterase, sequence (P06276 whole entry): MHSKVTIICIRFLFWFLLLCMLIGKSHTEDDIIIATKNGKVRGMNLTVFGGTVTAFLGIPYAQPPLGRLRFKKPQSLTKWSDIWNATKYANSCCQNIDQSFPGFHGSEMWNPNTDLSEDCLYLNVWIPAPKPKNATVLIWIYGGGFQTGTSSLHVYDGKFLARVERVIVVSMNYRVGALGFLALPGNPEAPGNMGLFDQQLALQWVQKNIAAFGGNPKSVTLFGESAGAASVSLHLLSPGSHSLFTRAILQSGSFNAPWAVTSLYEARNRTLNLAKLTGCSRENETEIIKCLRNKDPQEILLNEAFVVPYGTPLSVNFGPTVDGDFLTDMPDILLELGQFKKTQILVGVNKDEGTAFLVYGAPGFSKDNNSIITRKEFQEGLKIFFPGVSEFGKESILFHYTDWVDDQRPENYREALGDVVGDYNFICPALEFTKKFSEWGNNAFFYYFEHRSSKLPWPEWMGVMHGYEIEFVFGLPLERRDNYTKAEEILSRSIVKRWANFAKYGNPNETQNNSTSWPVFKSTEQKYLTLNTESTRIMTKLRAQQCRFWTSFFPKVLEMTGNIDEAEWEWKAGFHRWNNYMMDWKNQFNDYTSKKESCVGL

| SMILES | Ki [1] [µM] | Ki [2] [µM] | IC50 [3] [µM] | IC50 [4] [µM] |
| --- | --- | --- | --- | --- |
| O=C(NCCCCCNc1c2c(nc3ccccc13)CCCC2)c1cc2ccccc2oc1=O | 0.0317 | 0.0344 | 40.1 | > 100 |
| COc1ccc2cc(C(=O)NCCCCCNc3c4c(nc5ccccc35)CCCC4)c(=O)oc2c1 | 0.0298 | 0.0443 | – | – |
| COc1ccc2oc(=O)c(C(=O)NCCCCCNc3c4c(nc5ccccc35)CCCC4)cc2c1 | 0.034 | 0.0394 | – | – |
| Cc1ccc2oc(=O)c(C(=O)NCCCCCNc3c4c(nc5ccccc35)CCCC4)cc2c1 | 0.0324 | 0.0358 | – | – |
| COc1cc2cc(C(=O)NCCCCCNc3c4c(nc5ccccc35)CCCC4)c(=O)oc2cc1OC | 0.0081 | 0.07 | – | – |
| O=C(NCCCCCNc1c2c(nc3ccccc13)CCCC2)c1cc2cc(OC(F)(F)F)ccc2oc1=O | 0.0325 | 0.0761 | – | – |
| O=C(NCCCCCCNc1c2c(nc3ccccc13)CCCC2)c1cc2ccccc2oc1=O | 0.0161 | 0.0167 | 17.2 | > 100 |
| COc1ccc2cc(C(=O)NCCCCCCNc3c4c(nc5ccccc35)CCCC4)c(=O)oc2c1 | 0.0202 | 0.0309 | – | – |
| COc1ccc2oc(=O)c(C(=O)NCCCCCCNc3c4c(nc5ccccc35)CCCC4)cc2c1 | 0.0237 | 0.0243 | – | – |
| Cc1ccc2oc(=O)c(C(=O)NCCCCCCNc3c4c(nc5ccccc35)CCCC4)cc2c1 | 0.0232 | 0.0301 | > 100 | 5 |
| COc1cc2cc(C(=O)NCCCCCCNc3c4c(nc5ccccc35)CCCC4)c(=O)oc2cc1OC | 0.0312 | 0.0561 | – | – |
| O=C(NCCCCCCNc1c2c(nc3ccccc13)CCCC2)c1cc2cc(OC(F)(F)F)ccc2oc1=O | 0.0175 | 0.0596 | 22.6 | 24.2 |
| O=C(NCCCCCCCNc1c2c(nc3ccccc13)CCCC2)c1cc2ccccc2oc1=O | 0.02 | 0.0422 | – | – |
| COc1ccc2cc(C(=O)NCCCCCCCNc3c4c(nc5ccccc35)CCCC4)c(=O)oc2c1 | 0.035 | 0.0552 | – | – |
| COc1ccc2oc(=O)c(C(=O)NCCCCCCCNc3c4c(nc5ccccc35)CCCC4)cc2c1 | 0.0345 | 0.0507 | 20.2 | 13.4 |
| Cc1ccc2oc(=O)c(C(=O)NCCCCCCCNc3c4c(nc5ccccc35)CCCC4)cc2c1 | 0.0509 | 0.0661 | 42.8 | 6.1 |
| COc1cc2cc(C(=O)NCCCCCCCNc3c4c(nc5ccccc35)CCCC4)c(=O)oc2cc1OC | 0.0375 | 0.0911 | – | – |
| O=C(NCCCCCCCNc1c2c(nc3ccccc13)CCCC2)c1cc2cc(OC(F)(F)F)ccc2oc1=O | 0.04 | 0.0782 | – | – |
